Literature values as cited in patent US20110212192A1, “INGESTIBLES CONTAINING SUGAR AND CINNAMON OR GINSENG” (ALLEGIANCE EQUITY CORPORATION, priority 2008, published 2011).

Experiments:
Conditions in all cases: immunoblotting; mouse 3T3-L1 adipocytes
[1] = system: insulin receptor (IR)
[2] = system: glucose transporter 4 (GLUT4)
[3] = system: tristetraprolin (TTP)

insulin
increased: level of insulin receptor (IR) protein [1] | level of glucose transporter 4 (GLUT4) protein [2] | level of tristetraprolin (TTP) protein [3]
